Experimental data published in paper PMC8001472, “Novel Selective IDO1 Inhibitors with Isoxazolo[5,4-d]pyrimidin-4(5H)-one Scaffold” (Pharmaceuticals, 2021).

What was measured:
hIDO2 = target: T1, hIDO2 (Homo sapiens, UniProt Q6ZQW0); assay: hIDO2 inhibitory potency evaluation (fluorescence assay); format: biochemical; conditions: 100 µM compound; n.a. = not active; read-out: IDO2 % of Inhibition @ 100 µM
T1 construct: purchased Vinci-Biochem
T1 sequence (Q6ZQW0 1-407): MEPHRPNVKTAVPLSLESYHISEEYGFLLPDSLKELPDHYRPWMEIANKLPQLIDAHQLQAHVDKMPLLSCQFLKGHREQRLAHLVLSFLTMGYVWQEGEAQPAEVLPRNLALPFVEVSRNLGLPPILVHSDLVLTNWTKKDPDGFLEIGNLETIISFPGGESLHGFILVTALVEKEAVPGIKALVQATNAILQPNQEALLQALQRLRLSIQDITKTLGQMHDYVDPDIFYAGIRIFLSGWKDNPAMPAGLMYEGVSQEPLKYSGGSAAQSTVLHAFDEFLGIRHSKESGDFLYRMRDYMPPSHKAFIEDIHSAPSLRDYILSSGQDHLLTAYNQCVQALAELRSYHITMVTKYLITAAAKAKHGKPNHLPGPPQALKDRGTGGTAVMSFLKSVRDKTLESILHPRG
Protocol: (§1) Additionally, to determine IDO1 selectivity, all final compounds were assayed for their inhibitory potencies towards hIDO2 and hTDO. For this purpose, two new protocols were developed based on the published fluorescence assay for hIDO1 [25]. Sodium ascorbate, methylene blue, and bovine catalase were used in the same concentrations as for hIDO1. 50 mM phosphate buffers with pH values of 7.5 and 7.0 were used for hIDO2 and hTDO, respectively, as has been already mentioned before. First, the activities of hIDO2 and hTDO were determined at four different concentrations. […] Additionally, the effect of DMSO concentration on enzyme activity was investigated. […] The optimal hIDO2 and hTDO assay concentrations of the substrate L-Trp were determined to be 4 mM and 500 μM, respectively.
Activity of the compounds on hIDO2 was determined according to the previously reported fluorescence protocol for hIDO1 [25] and reported absorbance protocols for hIDO2 [30, 36] with several modifications. Recombinant hIDO2 was purchased from Vinci-Biochem (Vinci-Biochem, Srl, Vinci, Italy), bovine catalase was purchased from Sigma-Aldrich (Sigma-Aldrich, St. Louis, MO, USA). Prior to the measurement of activity for compounds, the enzyme activity was determined and optimal assay enzyme concentration was selected. The amounts of reagents needed to perform the assay were optimized. Briefly, the reagents needed were dissolved in 50 mM potassium phosphate buffer (pH 7.5, 0.01%, v/v Tween 20), the reaction was performed in black 384-well microplates. After the addition of 1 μL of 100 mM sodium ascorbate neutralized with an equimolar amount of 1M NaOH, 1 μL of 100 μM methylene blue, 1 μL of 1 mg/mL bovine catalase, 0.5 μL of DMSO (negative control) or solution of a compound in DMSO, 5 μL of […] hIDO2 and 1.5 μL of 26.7 mM L-Trp were added and the microplate was incubated for 60 min at 37 °C. The reaction was quenched with the addition of 10 μL of 400 mM piperidine solution in MilliQ water and the formation of the examined fluorophore began following incubation at 65 °C for 20 min. The production of NFK-derived fluorophore (λEX = 400 nm, λEM = 500 nm) was measured using a microplate reader (Synergy H4; BioTek Instruments, Inc., Winooski, VT, USA) after 60 min post-incubation at room temperature. In the preliminary testing compounds were tested at 100 μM with activities determined as residual activities—RA, which were calculated to% of inhibition, presented in Table 1 and Table 2. (% of inhibition = 100% − RA). All determinations were carried out in duplicates.

hTDO = target: T2, hTDO (Homo sapiens, UniProt P48775); assay: hTDO inhibitory potency evaluation (fluorescence assay); format: biochemical; conditions: 100 µM compound; n.a. = not active; read-out: TDO % of Inhibition @ 100 µM
T2 construct: purchased Vinci-Biochem
Protocol: as §1
The activity of the compounds on hTDO was determined according to the previously reported fluorescence protocol for hIDO1 [25] and reported absorbance protocols for hTDO [30] with several modifications. Recombinant hTDO was purchased from Vinci-Biochem (Vinci-Biochem, Vinci, Italy), bovine catalase was purchased from Sigma-Aldrich (Sigma-Aldrich, St. Louis, MO, USA). Prior to the measurement of activity for compounds, the enzyme activity was determined, and optimal assay enzyme concentration was selected. The amounts of reagents needed to perform the assay were optimized. Briefly, the reagents needed were dissolved in 50 mM potassium phosphate buffer (pH 7.0, 0.01%, v/v Tween 20), the reaction was performed in black 384-well microplates. After the addition of 1 μL of 100 mM sodium ascorbate neutralized with equimolar amount of 1 M NaOH, 1 μL of 100 μM methylene blue, 1 μL of 1 mg/mL bovine catalase, 0.5 μL of DMSO (negative control) or solution of a compound, 5 μL of 300 nM hTDO and 1.5 μL of 3.3 mM L-Trp were added and the microplate was incubated for 60 min at 37 °C. The reaction was quenched with the addition of 10 μL of 400 mM piperidine solution in MilliQ water and the formation of the examined fluorophore began following incubation at 65 °C for 20 min. The production of NFK-derived fluorophore (λEX = 400 nm, λEM = 500 nm) was measured using a microplate reader (Synergy H4; BioTek Instruments, Inc., Winooski, VT, USA) after 60 min post-incubation at room temperature. In the preliminary testing compounds were tested at 100 μM with activities determined as residual activities—RA, which were calculated to% of inhibition, presented in Table 1 and Table 2 (% of inhibition = 100% − RA). All determinations were carried out in duplicates.

IDO1 = IDO1 (Homo sapiens, UniProt P14902); assay: hIDO1 inhibitory potency evaluation (fluorescence assay, NFK-derived fluorophore); format: biochemical; set-up: gene encoding human IDO1 residues 6-403 His-tagged at the N-terminus; His tag (N); made in house; host or cells: Escherichia coli NiCo21; conditions: for IC50: recombinant hIDO1, mean ± SD of at least two independent determinations, read-out: IDO1 IC50
Hep G2 cell line = assay: Cytotoxicity, MTS cell proliferation assay; format: cell-based; conditions: Hep G2 cells, 10 μM, 24 h
Protocol: All active compounds were additionally evaluated on a cellular level, starting with the determination of cytotoxicity on Hep G2 cell line using the MTS assay (Figure 3), where inner salt of [3-(4,5-dimethylthiazol-2-yl)-5-(3-carboxymethoxyphenyl)-2-(4-sulfophenyl)-2H-tetrazolium is converted to formazan product, its quantity is directly proportional to the number of living cells. Since the majority of compounds were only partially soluble in a cell medium at concentrations above 100 μM, their effect on cell viability was measured at 50 μM, 10 μM, and 1 μM. […] Taken together, the results obtained from cellular tests reminded us of the necessity to consider the physicochemical properties of compounds even at the early stages of design.
Cytotoxicity of the compounds was determined on HepG2 cell line using the MTS cell proliferation assay (CellTiter 96 AQueous One Solution Cell Proliferation Assay, Promega, Madison, WI, USA). The cells were seeded in 96-well plates (3 × 10^4 cells/well) and maintained in Dulbecco’s Modified Eagle’s Medium, supplemented with 10% fetal bovine serum (both from Thermo Fisher Scientific, Waltham, MA, USA) and 100 µg/mL gentamicin (Sigma-Aldrich, St. Louis, MO, USA). Following overnight incubation in a humidified chamber at 37 °C and 5% CO2 cells were treated with the compounds of interest at final concentrations of 1 µM, 10 µM, 50 µM, 100 µM, 150 µM, and 200 µM. After 24h incubation under the same conditions, 100 µL of the medium from each well were collected and mixed with 10 µL of MTS solution. Following 3h incubation, the absorbance (λABS = 490 nm) was measured using a microplate reader (Synergy H4; BioTek Instruments, Inc., Winooski, VT, USA). The results are expressed as means of triplicates ± standard deviation of three independent experiments.

IDO1, sequence (P14902 6-403): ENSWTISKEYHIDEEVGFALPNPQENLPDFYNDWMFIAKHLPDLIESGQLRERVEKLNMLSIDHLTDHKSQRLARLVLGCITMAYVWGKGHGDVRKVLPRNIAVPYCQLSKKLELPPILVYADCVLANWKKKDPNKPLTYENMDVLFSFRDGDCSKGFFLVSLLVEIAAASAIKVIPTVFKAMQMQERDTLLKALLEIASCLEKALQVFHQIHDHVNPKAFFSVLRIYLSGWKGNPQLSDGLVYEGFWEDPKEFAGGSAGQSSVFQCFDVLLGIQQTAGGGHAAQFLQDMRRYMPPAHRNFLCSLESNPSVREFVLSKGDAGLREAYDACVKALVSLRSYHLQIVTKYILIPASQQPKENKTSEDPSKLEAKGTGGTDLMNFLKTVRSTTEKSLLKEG
T2 sequence (P48775 whole entry): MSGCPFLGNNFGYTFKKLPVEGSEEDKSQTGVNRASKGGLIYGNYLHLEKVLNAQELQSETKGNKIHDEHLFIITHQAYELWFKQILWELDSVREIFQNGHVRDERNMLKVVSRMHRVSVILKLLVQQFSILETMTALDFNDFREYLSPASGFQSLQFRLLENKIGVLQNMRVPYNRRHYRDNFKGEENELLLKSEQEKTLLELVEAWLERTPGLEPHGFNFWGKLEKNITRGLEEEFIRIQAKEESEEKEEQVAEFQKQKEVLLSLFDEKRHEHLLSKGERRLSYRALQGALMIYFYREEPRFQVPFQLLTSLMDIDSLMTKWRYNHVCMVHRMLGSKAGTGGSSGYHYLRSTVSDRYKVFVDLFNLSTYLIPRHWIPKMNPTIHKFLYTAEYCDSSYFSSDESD

melting point [°C] | inhibition at 100 µM (hIDO2) [%] | inhibition at 100 µM (hTDO) [%] | inhibition at 100 µM (IDO1; 100 µM compound, n.a. = not active, read-out: IDO1 % of Inhibition @ 100 µM) [%] | IC50 (IDO1) [µM] | hIDO1 inhibition (in words) (IDO1) | Compound | effect on cell viability (Hep G2 cell line)
232 to 235 | 39 ± 5 | 25 ± 8 | 30 ± 2 |  |  | O=C(Cn1cnc2onc(-c3ccc(F)cc3)c2c1=O)Nc1cccc([N+](=O)[O-])c1 [Compound 24] | 
200 to 203 | 28 | 24 ± 7 |  | 98 |  | O=C(Cn1cnc2onc(-c3ccc(F)cc3)c2c1=O)Nc1ccc([N+](=O)[O-])cc1 [Compound 25] | 
200 to 202 | 11 ± 7 |  |  | 22 | low micromolar range | COC(=O)c1ccc(NC(=O)Cn2cnc3onc(-c4ccccc4)c3c2=O)cc1 [Compound 39] | significantly impacted cell viability
226 to 228 |  | 10 ± 2 |  | 96 |  | O=C(Cn1cnc2onc(-c3ccc(F)c(Br)c3)c2c1=O)Nc1ccc([N+](=O)[O-])cc1 [Compound 49] | significantly impacted cell viability
